Experimental data taken from patent publication US11851431B2, “Tricyclic Janus kinase 1 inhibitors, and compositions and methods thereof” (LYNK PHARMACEUTICALS CO. LTD., priority 2018, dated 2023).
Where two headings read alike, the source gives them in different places.

Key:
JAK1 = biological target: T1, JAK1 (Homo sapiens, UniProt P23458); test: JAK biochemical microfluidic assay (Caliper EZ Reader), JAK1; settings: 1 mM ATP; head prints (5 nM)
T1 construct: purchased Carna Biosciences
Protocol: (§1) JAK activity was determined in the reaction buffer 50 mM HEPES, 0.01% Brij35, 10 mM MgCl2, 2 mM DTT by a microfluidic assay. The phosphorylation of a FAM labeled peptide substrate was monitored in the Caliper EZ Reader II (Perkin Elmer). The assay condition for each batch of enzyme (Carna Biosciences) was optimized to obtain 10% conversion rate of peptide substrate.
(§2) The test compounds were dissolved in DMSO to a stock concentration of 10 mM. Three-fold serially diluted compounds with top concentration of 5 μM were pre-incubated with JAK1, JAK2 or TYK2 for 10 min at ambient temperature. The final DMSO concentration of assay mixture was 1%. […] The reaction was stopped by adding 50 mM EDTA.
(§3) The percent inhibition was calculated by the following formula. % Inhibition=(Conversionmax−Conversionsample)/(Conversionmax−Conversionmin)*100 Conversionmax means the conversion rate in the positive well without addition of compound • […] means the conversion rate in the well without addition of enzyme • Conversionsample means the conversion rate of test compounds
(§4) The dose-response (percent inhibition) curve was plotted and IC50 values were determined by GraphPad software.

[1] = Rat pharmacokinetic study; assay type: in vivo, Sprague-Dawley rats; settings: for half-life: read-out: t½ (converted)
Protocol: Pharmacokinetic profile of test articles were evaluated in fasted Sprague-Dawley rats. Typically, Rats were dosed with 1 mg/kg and 2 mg/kg by intravenous injection and oral gavage, respectively. After dosing, blood samples were collected at each time point. For IV injection group, time points were set at 5, 15, 30 min, and then 1, 2, 4, 8 and 24 hours after dosing. For oral gavage group, time points were set at 15, 30 min, and then 1, 2, 4, 8, and 24 hours. Blood was collected into appropriately labeled tubes containing K2EDTA as the anticoagulant. Plasma was obtained within 1 hours of blood collection by centrifugation at 8000×g and 4° C. for 6 minutes, and then stored at −20° C. until analyzed by LC/MS/MS for quantification.
PK parameter values, including, but not necessarily limited to, the maximum plasma concentrations (Cmax), the time to reach the maximum concentrations (Tmax), and the area under the plasma concentration vs. time curve (AUC) from time zero to 24-hour (AUC0-24h) were determined using WinNonlin program.

JAK2 = biological target: T2, JAK2 (Homo sapiens, UniProt O60674); test: JAK biochemical microfluidic assay (Caliper EZ Reader), JAK2; settings: 1 mM ATP; head prints (0.25 nM)
T2 construct: purchased Carna Biosciences
Protocol: as §1, §2, §3, §4

BaF3-TEL-JAK2 = test: Anti-proliferative assay, BaF3-TEL-JAK2 cells; assay type: cell-based; settings: 72 h, Cell-Titer Glo
Protocol: (§5) Dimerization domain of Tel protein fused with JAK kinase domain was permanently transduced into BaF3 cells, whose proliferation is dependent on JAK activity in the absence of IL-3 induction. These engineered BaF3-Tel-JAK cells were used to monitor JAK inhibitory activities of the compounds in the cellular.
(§6) BaF3-Tel-JAK cells were cultured in RPMI-1640 (Corning) containing 10% fetal bovine serum. Cells were seeded at 2000/well of white flat bottom 96-well plates. The well containing medium only was used as background control. After 24h growth, cells were treated with compounds. The test compounds were dissolved in DMSO to a stock concentration of 10 mM. 3-fold serially diluted compounds for 9 concentrations with top concentration of 10 μM was added into the each well. The final DMSO concentration was 0.2%. The cells continued to grow at 37° C. in 5% CO2 for 72 h after compound treatment. The viability was measured by cellular ATP determination using the Cell-Titer Glo luciferase reagent (Promega). The Luminescence value was recorded by a multi-label reader Envision (PerkinElmer). Values were transformed to percent inhibition using the following formula. % Inhibition=(Readoutmax−Readoutsample)/(Readoutmax−Readoutmin)*100
(§7) The well without compound but with equivalent DMSO was defined as Readout max
(§8) The well with only medium and equivalent DMSO was defined as Readout min
(§9) The dose-response (percent inhibition) curve was plotted and GI50 values (the concentration that causes 50% growth inhibition) were determined by GraphPad software.

TYK2 = biological target: T3, TYK2 (Homo sapiens, UniProt P29597); test: JAK biochemical microfluidic assay (Caliper EZ Reader), TYK2; settings: 1 mM ATP; head prints (2.5 nM)
T3 construct: purchased Carna Biosciences
Protocol: as §1, §2, §3, §4

BaF3-TEL-JAK1 = test: Anti-proliferative assay, BaF3-TEL-JAK1 cells; assay type: cell-based; settings: 72 h, Cell-Titer Glo
Protocol: as §5, §6, §7, §8, §9

[2] = Human liver microsome stability study; assay type: in vitro ADME; settings: liver microsomes, pH 7.4, 0.5 mg/mL microsomal protein, 1 μM test article; for microsomal CLint at 1 μM: read-out: HLM Clint; for half-life at 1 μM: read-out: HLM T½
Protocol: Commercially available human liver microsome (vendor: Corning) were used for study the Phase I stability of test articles.
Microsomes were pre-incubated with test compound or control compounds for 10 min at 37° C. in 100 mM potassium phosphate buffer, pH 7.4, 3.3 mM MgCl2. The reaction was initiated by addition of 80 μL of the NADPH regenerating system to 320 μL of each incubation mixture per time point. The final incubation condition was composed of 0.5 mg/mL microsomal protein, 1 μM test article/positive control, 1.3 mM NADP, 3.3 mM glucose-6-phosphate, and 0.6 U/mL glucose-6-phosphate dehydrogenase. The 0-minute samples were prepared by addition of an 80 μL aliquot of each incubation mixture to 400 μL quench reagent to precipitate proteins. And then a 20 μL aliquot of the NADPH regenerating system was added. At 10, 30, and 90 minutes, the reaction will be stopped by the addition of cold acetonitrile solution containing tolbutamide and propanolol served as internal standard. The samples taken at all time points were centrifuged at 4000×g for 15 minutes. 80 μL of supernatant are taken into 96-well assay plates pre-added with 160 μL ultrapure water, and then analyzed by LC/MS/MS (Shimadzu LC30AD & API4000/API5000)).
Concentrations of test articles, control compounds in the samples were determined by using LC/MS/MS) method. Plotting of the chromatograms and peak area integrations are carried out by Analyst (AB Sciex).
In the determination of the in vitro elimination constant, ke, of the control compounds, the analyte/internal standard peak area ratios will be converted to percentage remaining (% Remaining) with the following equation:
The CLint of microsomes was calculated using the formula: CLint (mic)=0.693/T1/2/mg microsome protein per mL.

[3] = Sprague-Dawley, plasma, 1 mg/kg, Rat iv @1 mpk, 0.2 mg/mL in 5% DMSO + 15% Solutol HS 15 + 80% Saline
[4] = Sprague-Dawley, plasma, 2 mg/kg, Rat po @2 mpk, 0.2 mg/mL in 5% DMSO + 15% Solutol HS 15 + 80% Saline

T1 sequence (P23458 whole entry): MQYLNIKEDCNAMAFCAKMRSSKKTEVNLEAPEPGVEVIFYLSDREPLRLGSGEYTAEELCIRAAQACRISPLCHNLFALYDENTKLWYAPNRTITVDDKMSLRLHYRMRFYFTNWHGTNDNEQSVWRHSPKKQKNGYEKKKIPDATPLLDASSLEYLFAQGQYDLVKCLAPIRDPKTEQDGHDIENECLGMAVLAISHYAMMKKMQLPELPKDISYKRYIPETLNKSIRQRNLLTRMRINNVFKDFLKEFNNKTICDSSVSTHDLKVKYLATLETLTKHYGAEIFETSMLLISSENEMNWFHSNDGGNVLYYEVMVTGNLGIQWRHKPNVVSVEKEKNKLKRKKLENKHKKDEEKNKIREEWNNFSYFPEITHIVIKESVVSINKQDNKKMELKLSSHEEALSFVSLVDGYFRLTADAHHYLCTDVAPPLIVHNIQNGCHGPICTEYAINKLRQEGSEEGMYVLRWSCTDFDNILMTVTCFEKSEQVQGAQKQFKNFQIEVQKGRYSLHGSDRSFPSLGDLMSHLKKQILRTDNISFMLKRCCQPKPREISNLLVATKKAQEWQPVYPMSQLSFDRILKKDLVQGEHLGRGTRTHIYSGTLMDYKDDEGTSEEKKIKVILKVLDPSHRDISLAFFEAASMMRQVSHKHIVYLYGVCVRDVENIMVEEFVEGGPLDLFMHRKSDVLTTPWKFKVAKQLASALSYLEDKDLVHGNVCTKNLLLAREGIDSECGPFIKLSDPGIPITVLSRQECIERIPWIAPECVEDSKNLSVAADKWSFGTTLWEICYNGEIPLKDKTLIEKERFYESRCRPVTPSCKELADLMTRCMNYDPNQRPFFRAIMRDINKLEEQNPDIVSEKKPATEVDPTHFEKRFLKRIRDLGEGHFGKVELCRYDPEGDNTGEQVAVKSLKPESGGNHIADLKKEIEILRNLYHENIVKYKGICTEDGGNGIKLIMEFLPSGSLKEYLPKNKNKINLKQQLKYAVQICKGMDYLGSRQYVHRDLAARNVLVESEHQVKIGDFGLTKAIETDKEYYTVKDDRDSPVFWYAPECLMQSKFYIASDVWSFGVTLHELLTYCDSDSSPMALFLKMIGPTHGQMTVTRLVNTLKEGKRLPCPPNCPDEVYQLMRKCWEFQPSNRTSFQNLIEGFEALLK
T3 sequence (P29597 whole entry): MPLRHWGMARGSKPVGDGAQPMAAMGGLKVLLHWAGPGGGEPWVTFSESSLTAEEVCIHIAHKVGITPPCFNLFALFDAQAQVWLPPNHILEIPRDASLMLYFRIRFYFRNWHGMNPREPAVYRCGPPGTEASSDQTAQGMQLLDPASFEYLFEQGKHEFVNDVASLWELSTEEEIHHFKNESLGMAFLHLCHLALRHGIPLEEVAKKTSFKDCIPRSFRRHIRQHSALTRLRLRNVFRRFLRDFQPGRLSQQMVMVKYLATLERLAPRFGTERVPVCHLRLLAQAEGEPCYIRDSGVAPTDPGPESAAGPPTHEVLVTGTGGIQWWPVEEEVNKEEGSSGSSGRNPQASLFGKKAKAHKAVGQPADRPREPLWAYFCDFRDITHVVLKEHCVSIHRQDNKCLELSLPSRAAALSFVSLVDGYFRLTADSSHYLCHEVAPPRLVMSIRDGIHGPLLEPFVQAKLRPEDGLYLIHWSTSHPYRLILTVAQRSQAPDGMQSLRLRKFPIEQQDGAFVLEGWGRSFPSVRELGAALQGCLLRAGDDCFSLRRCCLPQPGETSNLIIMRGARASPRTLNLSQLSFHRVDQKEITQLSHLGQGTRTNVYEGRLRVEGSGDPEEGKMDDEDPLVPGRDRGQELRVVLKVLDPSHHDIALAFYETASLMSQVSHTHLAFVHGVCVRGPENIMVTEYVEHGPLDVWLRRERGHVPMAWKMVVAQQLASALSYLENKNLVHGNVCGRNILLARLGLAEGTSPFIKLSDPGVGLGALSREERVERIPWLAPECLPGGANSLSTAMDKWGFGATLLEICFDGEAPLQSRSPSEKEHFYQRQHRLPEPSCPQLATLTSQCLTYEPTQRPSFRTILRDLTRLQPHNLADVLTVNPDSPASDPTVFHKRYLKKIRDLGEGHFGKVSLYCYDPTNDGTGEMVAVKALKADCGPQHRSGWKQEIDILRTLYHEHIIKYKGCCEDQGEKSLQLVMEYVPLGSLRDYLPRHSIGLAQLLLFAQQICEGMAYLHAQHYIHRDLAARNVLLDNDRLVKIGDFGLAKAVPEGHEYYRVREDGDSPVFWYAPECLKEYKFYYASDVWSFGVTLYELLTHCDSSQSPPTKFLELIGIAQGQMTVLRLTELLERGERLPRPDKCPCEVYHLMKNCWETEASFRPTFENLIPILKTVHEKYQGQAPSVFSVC
T2 sequence (O60674 whole entry): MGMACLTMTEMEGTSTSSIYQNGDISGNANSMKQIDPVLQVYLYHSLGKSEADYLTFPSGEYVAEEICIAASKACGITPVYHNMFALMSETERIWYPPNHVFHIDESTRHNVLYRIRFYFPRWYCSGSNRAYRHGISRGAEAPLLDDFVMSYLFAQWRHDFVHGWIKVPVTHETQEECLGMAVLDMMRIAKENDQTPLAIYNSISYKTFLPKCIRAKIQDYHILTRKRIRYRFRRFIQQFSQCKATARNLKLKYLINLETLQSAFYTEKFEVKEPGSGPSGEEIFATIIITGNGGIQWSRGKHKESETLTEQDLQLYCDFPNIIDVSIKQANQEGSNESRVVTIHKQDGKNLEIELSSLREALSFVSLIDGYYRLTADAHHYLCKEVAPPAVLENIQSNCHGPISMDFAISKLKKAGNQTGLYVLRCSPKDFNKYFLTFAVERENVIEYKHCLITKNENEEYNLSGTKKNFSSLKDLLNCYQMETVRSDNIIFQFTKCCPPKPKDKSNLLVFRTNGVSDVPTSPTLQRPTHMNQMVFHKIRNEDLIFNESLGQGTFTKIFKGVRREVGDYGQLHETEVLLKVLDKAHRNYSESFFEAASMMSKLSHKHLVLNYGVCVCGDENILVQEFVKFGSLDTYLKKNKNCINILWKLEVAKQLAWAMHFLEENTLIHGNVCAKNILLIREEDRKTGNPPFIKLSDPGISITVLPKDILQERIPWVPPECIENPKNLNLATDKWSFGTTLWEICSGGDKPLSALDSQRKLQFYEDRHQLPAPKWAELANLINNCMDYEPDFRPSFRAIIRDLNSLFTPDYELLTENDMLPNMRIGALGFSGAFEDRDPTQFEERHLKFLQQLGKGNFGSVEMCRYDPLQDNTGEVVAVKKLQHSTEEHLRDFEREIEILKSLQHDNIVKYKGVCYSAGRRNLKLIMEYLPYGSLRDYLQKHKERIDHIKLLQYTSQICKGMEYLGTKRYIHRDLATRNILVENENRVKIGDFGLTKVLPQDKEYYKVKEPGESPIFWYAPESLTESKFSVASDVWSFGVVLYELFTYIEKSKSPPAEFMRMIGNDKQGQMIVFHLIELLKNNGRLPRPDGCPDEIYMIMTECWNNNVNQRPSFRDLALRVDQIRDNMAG

Structure (SMILES)	IC50 (JAK1) [nM]	F ([1]; Rat po @2 mpk, 0.2 mg/mL in 5% DMSO + 15% Solutol HS 15 + 80% Saline) [%]	AUC [1, 3] [ng·h/mL]	Vd [1, 3] [L/kg]	clearance [1, 3] [mL/min/kg]	half-life [1, 3] [h]	AUC [1, 4] [ng·h/mL]	Cmax [1, 4] [ng/mL]	half-life [1, 4] [h]	Pharmacokinetic profile in rats ([1]; conclusion in words)	IC50 (JAK2) [nM]	GI50 (BaF3-TEL-JAK2) [nM]	IC50 (TYK2) [nM]	GI50 (BaF3-TEL-JAK1) [nM]	microsomal CLint at 1 μM [2] [µL/min/mg]	half-life at 1 μM [2] [h]
CCCS(=O)(=O)NC12CC(n3cnc4cnc5[nH]ccc5c43)(C1)C2 [Example 1, N-(3-(Imidazo[4,5-d]pyrrolo[2,3-b]pyridin-1(6H)-yl)bicyclo[1.1.1]pentan-1-yl)propane-1-sulfonamide]	5.95	21.90	458	1.42	36.2	0.46	190	92.8	2.06	good Pharmacokinetic profile	141	354	119	19.6	4.1	5.69
O=S(=O)(NC12CC(n3cnc4cnc5[nH]ccc5c43)(C1)C2)N1CC(F)C1 [Example 22, 3-Fluoro-N-(3-(imidazo[4,5-d]pyrrolo[2,3-b]pyridin-1(6H)-yl)bicyclo[1.1.1]pentan-1-yl)azetidine-1-sulfonamide]	6.1										45.5	163	28.4	54	1.24	18.6
O=S(=O)(CCC(F)(F)F)NC12CC(n3cnc4cnc5[nH]ccc5c43)(C1)C2 [Example 32, 3,3,3-Trifluoro-N-(3-(imidazo[4,5-d]pyrrolo[2,3-b]pyridin-1(6H)-yl)bicyclo[1.1.1]pentan-1-yl)propane-1-sulfonamide]	6.7										155	122	151	33.6	2.72	8.5
O=C(CC1CC1)NC12CC(n3cnc4cnc5[nH]ccc5c43)(C1)C2 [Example 13, 2-Cyclopropyl-N-(3-(imidazo[4,5-d]pyrrolo[2,3-b]pyridin-1(6H)-yl)bicyclo[1.1.1]pentan-1-yl)acetamide]	14.8										122	108	400	50.1	1.01	23
O=C(NC12CC(n3cnc4cnc5[nH]ccc5c43)(C1)C2)C1CC(F)(F)C1 [Example 17, 3,3-Difluoro-N-(3-(imidazo[4,5-d]pyrrolo[2,3-b]pyridin-1(6H)-yl)bicyclo[1.1.1]pentan-1-yl)cyclobutanecarboxamide]	8.4										89.5	86.7		48.2	1.04	22.3
